In patent publication US20230276803A1, “A PESTICIDALLY ACTIVE MIXTURE COMPRISING THIETANYLOXY COMPOUND, OXIDES OR SALTS THEREOF” (PI INDUSTRIES LTD., priority 2020, published 2023):

Tests used:
Format in all cases: in vivo
[1] = tested on: Parastagonospora nodorum/Septoria nodorum/Stagnospora nodorum; experiment: Preventive glasshouse test against Septoria nodorum in wheat (Example J); details: 500 ppm, preventive spray
Source text: (§1) In which E represents the expected percentage of inhibition of the pests for the combination of two insecticides or one insecticide and one fungicide at defined doses (for example equal to x and y respectively), x is the percentage of inhibition observed for the pest/disease by the compound (1) at a given dose (equal to x), y is the percentage of inhibition observed for the pest/disease by the compound (2) or (3) at a defined dose (equal to y). When the percentage of inhibition observed for the combination is greater than E, there is a synergistic effect.
(§2) The single compounds or respective compound combinations were dissolved in 2% dimethyl sulfoxide/acetone and then mixed with water containing emulsifier to a calibrated spray volume of 50 mL. The test solutions were poured into spray bottles for further applications.
[…] One day after treatment, the plants were inoculated with a spore suspension containing 2.8×10^6 Stagnospora nodorum inoculum.
The inoculated plants were then kept in a greenhouse chamber at 22-25° C. temperature and 90-100% relative humidity for disease expression.
(§3) A visual assessment of the performance of the single compounds or compound combinations was carried out by rating the disease severity (0-100% scale) on treated plants 3, 7, 10 and 15 days after application. Efficacy (% control) of the single compounds and mixtures was calculated by comparing the disease rating in the treatment with the one of the untreated control. The compounds were also assessed for their plant compatibility by recording symptoms like necrosis, chlorosis and stunting. The results have been described for the compound of formula (I-1) in Table J.

[2] = tested on: Phakopsora pachyrhizi; experiment: Preventive glasshouse test against Phakopsora pachyrhizi in soybean (Example H); details: preventive spray
Source text: as §1
The single compounds or the respective compound combinations were dissolved in 2% dimethyl sulfoxide/acetone and then mixed with water containing an emulsifier to a calibrated spray volume of 50 ml. The test solutions were poured into spray bottles for further applications.
To test the preventive activity of compounds, healthy young Soybean plants, raised in the greenhouse, were sprayed with the active compound preparation at the stated application rates inside the spray cabinets using hollow cone nozzles. One day after treatment, the plants were inoculated with a suspension containing 2×10^5 Phakopsora pachyrhizi conidia. The inoculated plants were then kept in a greenhouse chamber at a temperature of 22-24° C. and 80-90% relative humidity for disease expression.
A visual assessment of the performance of the single compounds and respective compound combinations was carried out by rating the disease severity (0-100% scale) on treated plants 3, 7, 10 and 15 days after application. Efficacy (% control) of the compounds was calculated by comparing the disease rating in the treatment with the one of the untreated control. The compounds were also assessed for their plant compatibility by recording symptoms like necrosis, chlorosis and stunting. The results have been described for the compound of formula (I-1) in Table H.

[3] = tested on: Pyricularia oryzae; details: 500 ppm; preventive spray, rice
[4] = tested on: Plutella xylostella; experiment: Leaf dip method (cabbage) against Plutella xylostella (Example C); details: Plutella xylostella, foliar, 72 h, read-out: Observed Efficacy (%)
Source text: as §1
The leaf dip method was used, wherein the required quantity of the compound or respective compound combinations were weighed and dissolved in a test solution prepared in tubes. The tubes were put on a vortex at 2000 rpm for 90 min for proper mixing and then diluted with a 0.01% Triton-X solution to the desired test concentration. Cabbage leaves were dipped into the solution for 10 seconds, shade dried for 20 min and then transferred to single cells of bioassay trays. A single second instar larva was released into each cell and the tray was covered with a lid. The bio-assay trays were kept under laboratory conditions at a temperature of 25° C. and relative humidity of 70%. Observations on dead, moribund and live larvae were recorded 72 h after the release. Percent mortality was calculated by combining dead and moribund larvae and comparing the result with the one of the untreated control. The results are shown for compound of formula (I-1) in Table C.

[5] = tested on: Alternaria solani; experiment: Preventive glasshouse test against Alternaria solani in tomato (Example G); details: preventive spray
Source text: as §1, §2
To test the preventive activity, healthy young tomato plants, raised in the greenhouse, were sprayed with the active compound preparation at the stated application rates inside the spray cabinets using hollow cone nozzles. One day after treatment, the plants were inoculated with a spore suspension containing 0.24×10^6 Alternaria solani inoculum and 2% Malt. The inoculated plants were then kept in a greenhouse chamber at a temperature of 22-24° C. and 90-95% relative humidity for disease expression.
as §3, with “G.” for “J.”

[6] = tested on: Erysiphe cichoracearum; experiment: Preventive glasshouse test against Erysiphe cichoracearum in cucumber (Example K); details: 500 ppm, preventive spray
Source text: as §1
The single compounds or the respective compound combinations were dissolved in 2% dimethyl sulfoxide/acetone and then mixed with water containing emulsifier to a calibrated spray volume of 50 mL. The test solutions were poured into spray bottles for further applications. […]
A visual assessment of the performance of the compounds and the respective compound combinations was carried out by rating the disease severity (0-100% scale) on treated plants 3, 7, 10 and 15 days after application. Efficacy (% control) of the single compounds or compound combinations was calculated by comparing the disease rating in the treatment with the one of the untreated control. The compounds were also assessed for their plant compatibility by recording symptoms like necrosis, chlorosis and stunting. […]

[7] = tested on: Plutella xylostella; experiment: Leaf dip method (cabbage leaves), Bacillus thuringiensis mixture against Plutella xylostella (Example F); details: 0.1 ppm; 72 h
Source text: as §1
The leaf dip method was used, wherein the required quantity of the compounds were weighed and dissolved in a test solution prepared in tubes. The tubes were put on a vortex at 2000 rpm for 90 min for proper mixing and then, for the single compounds, diluted with a 0.01% Triton-X solution, for the combinations, diluted with a 0.01% Triton-X solution containing formulated Bt, to get the desired test concentration. Cabbage leaves were dipped in the solution for 10 seconds, shade dried for 20 min and then transferred to single cells of bioassay trays. […] Observations on dead, moribund and live larvae were recorded 72 h after the release. Percent mortality was calculated by combining dead and moribund larvae and comparing the results to the one of the untreated control. […]

Cc1cc(Cl)cc(C(=O)NC(C)(C)C)c1NC(=O)c1cc(OC2CS(=O)(=O)C2)nn1-c1ncccc1Cl [Compound (I-1), N-(2-(tert-butylcarbamoyl)-4-chloro-6-methylphenyl)-1-(3-chloropyridin-2-yl)-3-((1,1-dioxidothietan-3-yl)oxy)-1H-pyrazole-5-carboxamide]
Observed Efficacy (%) [1]: 37% | Observed Efficacy (%) ([2]; 100 ppm): 44% | Observed Efficacy (%) ([2]; 500 ppm): 47% | Observed Efficacy (%) [3]: 38% | pest or weed control at 0.0025 ppm ([4]; 0.0025 ppm): 0% | pest or weed control at 0.004 ppm ([4]; 0.004 ppm): 0% | pest or weed control at 0.005 ppm ([4]; 0.005 ppm): 0% | pest or weed control at 0.02 ppm ([4]; 0.02 ppm): 12.5% | pest or weed control at 0.03 ppm ([4]; 0.03 ppm): 12.5% | pest or weed control at 0.05 ppm ([4]; 0.05 ppm): 12.5% | pest or weed control at 0.1 ppm ([4]; 0.1 ppm): 12.5% | pest or weed control at 0.5 ppm ([4]; 0.5 ppm): 25% | Observed Efficacy (%) ([5]; 100 ppm): 14% | Observed Efficacy (%) ([5]; 500 ppm): 16% | Observed Efficacy (%) [6]: 28% | Observed Efficacy (%) [7]: 0%
